Test results reported in patent publication EP0358766A1, “METHOD OF STERILIZING PLANT ANTHERS” (VSESOJUZNY NAUCHNO-ISSLEDOVATELSKY INST. SELSKOKHOZYAISTV. …, priority 1988, dated 1989).

What was measured:
[1] = system: diploidem Roggen Voskhod 2; assay: Field test of gametocidal activity, diploid rye Voskhod 2; type: in vivo; details: period V, 1% aqueous emulsion, 10 kg/ha in 1000 l water
Text: Die gametozide Aktivität der erfindungsgemäßen Sterilisationsmittel war in Feldversuchen in verschiedenen bodenklimatischen Zonen mit Teilstücken von 10 m^2 Größe in dreibis viermaliger Wiederholung festgestellt. Jedes Sterilisationsmittel wurde mindenstens 5 Jahre lang geprüft.
Die Entwicklung der Perioden der Organogenese wird zytologisch überwacht. Die Behandlung von Pflanzen mit dem Sterilisationsmittel erfolgt am Anfang der fünften Periode der Organogenese nach Kupermann.
Mit dem Ährenschieben verwirklicht man die Isolierung von Hauptähren und anderen Stockwerken in Pergametbeuteln. Bei Weizen und Tritikale werden Einzelisolatoren benutzt. Bei Roggen schließt man je 1 Ähre von […] verschiedenen nebeneinander befindlichen Pflanzen unter einen gemeinsamen Isolator ein. Bei Hirse wird jede Rispe getrennt isoliert. Der Sterilitätsprozentsatz (X) für Weizen, Roggen, Tritikale und Hirse wird nach der Formel [formula] ermittelt.
Die Kornzahl in nicht isolierten Ähren von Kontrollpflanzen wird bedingt für 100 % Ansetzen bei freier Bestäubung angenommen.
Um zuverlässige Angaben zu erhalten, verwendet man 20 bis 25 Isolatoren je Wiederholung für Weizen und Tritikale, 10 bis 15 Isolatoren jeder Wiederholung für Roggen und Hirse.
Pflanzen von diploidem Roggen Voskhod 2 werden in der V. Periode der Organogenese mit einer 1%igen wäßrigen Emulsion von 1,1,3-Tribrompropan, 1,1,3-Tribrom-4-chlorbutan bzw. 1,1,2,3-Tetrabrompropan behandelt. Die Emulsion enthält 0,5 Masse% C12-C14-Kalziumalkylbenzolsulfonat und 0,01 Masse% Dimethylformamid. Der Verbrauch an Präparat beträgt 10 kg/ha bei 1000 1 Wasserdurchsatz. Die Prüfergebnisse sind in der Tabelle 14 angegeben. Die gleichen Ergebnisse sind bei der Behandlung von diploidem Roggen Voskhod 2 in der VI. Periode der Organogenese erhalten..

[2] = system: Winterweizens Sorte Mironowskaya 808; assay: Field test of gametocidal activity (anther sterilisation), winter wheat Mironowskaya 808; type: in vivo, Weizen; details: read-out: Prozentsatz der Sterilität %

BrCCC(Br)Br [Beispiel 1, 1,1,3-Tribrompropan]
Kornzahl der Ähre bei freier Bestäubung [1]: 48,6
Kornzahl der Ähre unter Isolator [1]: 0,9
Prozentsatz der Sterilität [1]: 98,2%
Prozentsatz des Ansetzens von Samen bei freier Bestäubung ([1]; control = 100): 89,0%
pest or weed control at 1 %, 20000 g/ha [2]: 98%
